Measurements taken from US9334257B2, “Methods of purifying and identifying the presence of and levels of procyanidin oligomeric compounds” (The Hershey Company, priority 2012, dated 2016).

experiment: Partition coefficient of cocoa procyanidin oligomers in the CPC biphasic solvent system; type: physicochemical; conditions: typical CPC runs as described; biphasic ethyl acetate:ethanol:water (6:1:5), ascending mode; unfermented cocoa bean sample of 8.5 grams
Method: A sample is mixed with water and prepared for FCPC with a KROMATON device and rotor. Columns are prepared with biphasic solvent mixture of ethyl acetate:ethanol:water at 6:1:5 ratio. The solvent used can be modified from this ratio by calculating the partition coefficients and comparing to that of the ethyl acetate:ethanol:water example. The FCPC is run in ascending mode for purifying procyanidins, so that the mobile phase is the upper phase in the resting columns.
These quantities are isolated from an unfermented cocoa bean sample of 8.5 grams. In comparison, with a diol HPLC column, 150×30 mm, injecting about 270 mg of the same sample per run yields only about 25 mg of DP2-4 and less than 1 mg of DP11-12. Clearly, the CPC methods of the invention provide commercially viable methods for producing usable quantities of a range of procyanidin oligomers, especially from cocoa sources.

**Q.** For `Oc1cc(O)c2c(c1)O[C@H](c1ccc(O)c(O)c1)[C@H](O)C2` [epicatechin], which Partition coefficient is on record?
**A.** 0.84

**Q.** Which Partition coefficient does the source give for `Oc1cc(O)c2c(c1)O[C@H](c1ccc(O)c(O)c1)[C@H](O)[C@H]2c1c(O)cc(O)c2c1O[C@H](c1ccc(O)c(O)c1)[C@H](O)C2` [procyanidin B2] here?
**A.** 0.63

**Q.** For `Oc1cc(O)c2c(c1)O[C@H](c1ccc(O)c(O)c1)[C@H](O)[C@H]2c1c(O)cc2c(c1O)C[C@@H](O)[C@@H](c1ccc(O)c(O)c1)O2` [procyanidin B5], which Partition coefficient is on record?
**A.** 0.94
